From a melting point compilation (Tetko et al.; mined from patent text by program, amines drawn as free bases though some values may be those of a salt)

melting point [°C]	Structure (SMILES)
228 to 231	Oc1ccc2c(c1)COc1c-2cc2ccc(O)cc2c1-c1cccc(C(F)(F)F)c1
150 to 152	COC(=O)c1ccc(Cn2c(C(F)(F)F)nc3cc(C)c(C)cc32)cc1
81 to 82	Cc1ccc2c(c1)nnn2C(=O)N1CCOCC1
174	O=C(Nc1ccccc1)[NH+]([O-])Cc1ccncc1 (stereo not given)
82 to 83	CCC1=CC(Cl)(NC2CCC(C(C(=O)OC)C(=O)OC)CC2)NC=N1 (stereo not given)
175	CCOC(=O)C1CN(C)c2nc(Cl)ncc2C1=O (stereo not given)
293 to 295	CCOC(=O)c1sc(NC(=O)c2ccc(C#N)cc2)nc1C
156 to 157	CCn1ncc2c3onc(-c4ccc(OC)cc4)c3cnc21
92	O=C(c1cccnc1)C(O)c1ccccc1Cl (stereo not given)
97 to 98	COc1ccc(CCNC(=O)COc2ccc(C[C@H](OC)C(=O)O)cc2)cc1
147	Nc1c(Br)cc(S(=O)(=O)C(F)(F)F)cc1[N+](=O)[O-]
107 to 108	CCOCc1cc2ccc(OC)cc2o/c1=N\c1ccccc1
144 to 145	COc1ccc(CCSc2c(O)cc(-c3ccccc3)oc2=O)cc1
174 to 175	Oc1cccc(-c2cc(-c3ccc(-c4ccccc4)cc3)cc(-c3ccc4ccccc4c3)n2)c1
140 to 142	CCCCCCC(C(=O)O)n1nnc(NC(=O)c2ccccc2C(=O)O)n1 (stereo not given)
150	O=C(NC[C@@H](C(=O)NO)N1CCCCC1)c1ccc(OCc2ccnc(Br)c2)cc1
151 to 153	CN1C(=O)C2(COc3cc4c(cc32)OCCO4)c2c(Oc3ccc(F)cc3)cccc21 (stereo not given)
109 to 111	c1ccc(COc2ccc(-c3nc4cccc(OCc5ccccc5)c4[nH]3)cc2C23CC4CC(CC(C4)C2)C3)cc1
163 to 165	COc1cccc(-c2ccnc3ncnn23)c1
272 to 273	CNC(=O)c1cc2cc(S(N)(=O)=O)sc2s1
118 to 120	CCOC(=O)C1=C(C)NC(c2cscn2)=NC1c1ccc(F)cc1 (stereo not given)
194 to 195	Cc1c(-c2cccc(C(F)(F)F)c2)oc2c(-c3ccc(F)cc3)c(-c3ccc(S(C)(=O)=O)cc3)nn12
235 to 236	COc1cc2c(=O)cc[nH]c2cc1OCc1ccccc1

melting point [°C]	Structure (SMILES)
208 to 209	O=CC(=Cc1ccc(OCc2ccc(Cl)cc2)cc1)C(C=O)=Cc1ccc(OCc2ccc(Cl)cc2)cc1
180 to 182	COc1ccccc1C(=O)NS(=O)(=O)c1ccc(N)cc1
211 to 213	Cn1c(COc2ccc(CC3SC(=O)NC3=O)cc2)nc2ccc(-c3ccccc3)nc21 (stereo not given)
115 to 116	O=S(=O)(Nc1ccc(Cl)c(F)c1)c1ccccc1
181 to 182	OCCNc1ccnc2cc(C(F)(F)F)ccc12
65 to 67	O=C(NCCSCc1ccccc1)c1ccccc1
112	CN(CCCCCCCNC(=O)NCCCOc1cccc(CN2CCCCC2)c1)CCN(Cc1ccc(F)cc1)c1ccccn1
129 to 130	O=C(O)CS(=O)CCCCCn1nc(-c2ccccc2)c(-c2ccccc2)c1-c1ccccc1 (stereo not given)
272 to 273	O=C1c2ccccc2C(=O)N1CC(=O)N1c2ccccc2N(c2ccccc2)C(=O)C2CCCC21 (stereo not given)
90 to 91	NNC(=O)c1cc2cc(Cl)ccc2s1
116	CCCCOc1ccc(C(=O)N(C)Cc2cccc(-c3ccc(CC4SC(=O)NC4=O)cc3)c2)cc1 (stereo not given)
149 to 152	Cc1nc2ccc3c(c2o1)C(O)(CC#N)C(C(C)C)C3 (stereo not given)
123 to 125	COCCN(CCOC)c1nc2cc(-c3ccc(Cl)cc3)nnc2c2ccccc12
178 to 180	C=C(C)CN(CC)c1nc(N2CCN(C(=O)NC(c3ccccc3)c3ccccc3)CC2)nc(N(CC)CC(=C)C)n1
72 to 75	COC(=O)NCc1cc(C(C)=NOCc2cccc(C)n2)ccc1C
78 to 81	CCCC(=O)NC1CCc2ccccc2C1 (stereo not given)
240	O=c1nc(-c2ccccn2)sc2ccc(F)cc12
273 to 276	Nc1c(F)c(N2CCC(=NO)C2)c(F)c2c1c(=O)c(C(=O)O)cn2C1CC1
73 to 74	O=C(CCc1ccc(F)cc1)c1cccnc1F
118 to 120	CS(=O)(=O)Nc1cc(C(c2cc(F)ccc2F)S(=O)(=O)c2ccc(F)c(F)c2)c(Cl)cn1 (stereo not given)
153 to 154	Cc1ccc(-c2ccccc2C(=O)NCc2ccc([N+](=O)[O-])cc2)cc1
119 to 121	CCOC(=O)c1cc(CC)sc1Nc1ccc(Cl)cc1N
178	O=C(O)CCCc1cc2nc(Cl)ccc2n1S(=O)(=O)c1ccc2ncsc2c1

melting point [°C]	Structure (SMILES)
161	Cc1cccc(Nc2nnc(C3OCOCO3)c3ccccc23)c1
116 to 118	CCn1nc(N)nc1NCCCOc1cccc(CN2CCCCC2)c1
175 to 190	CCCCc1oc2ccccc2c1C(=O)NCc1ccc(-c2ccc(OCC(=O)O)c(Br)c2)cc1
177 to 179	Nc1c(N(CC(=O)O)Cc2ccccc2)c(=O)c1=O
60 to 70	Cc1noc(NS(=O)(=O)c2ccccc2-c2ccc(-c3ncco3)cc2CNC(C)C(F)(F)F)c1C (stereo not given)
182	CCOc1ccc2c(c1)C(C)(c1ccccc1Cl)C(=O)N2S(=O)(=O)c1ccc(C(=O)NC(C)(C)CF)cc1 (stereo not given)
92 to 93	CCOC(=O)c1c(O)c2ccc(F)cc2c(=O)n1CC(C)(C)C
172 to 174	N#CN1CCN(c2nn(-c3ccccc3)c3cc(F)ccc23)CC1
62	CCCCCc1ccc(CC(=O)c2ccc(OC)cc2)cc1
130	NCCc1cccc(N2C(=O)N(c3ccccc3Br)Cc3cnc(Nc4ccccc4)nc32)c1
145	CCCCCCCCCCS(=O)(=O)NC(=O)c1cnc(C(=O)O)c(OC)c1
233 to 235	CCC(c1ccccc1)c1n[nH]c2c1c(=O)n(-c1ccccc1)c1ncccc21 (stereo not given)
118 to 121	O=C(O)CCC(NC(=O)c1ccc(-c2ccccc2OC2OC(CO)C(O)C(O)C2O)cc1)C(=O)O (stereo not given)
149 to 151	Cc1nc(N2CCN(Cc3ccc(OC(F)(F)F)cc3)C2=O)sc1C(=O)NC[C@H](O)c1ccccc1
105 to 108	NC1=NN(/C=N/O)C(=O)C1Cc1ccccc1 (stereo not given)
166 to 168	N#Cc1c(Cl)cccc1CSCCNC(=O)c1c(Cl)cccc1Cl
> 260	NC(=O)c1cc2c(Oc3ccc(C(=O)N4CCOCC4)cc3)cncc2s1
224 to 226	OCc1nc2ccc(Cl)nc2[nH]1
276 to 278	NC(=O)c1ccc(C(=O)O)c(N)c1
> 300	CC(=O)Nc1cccc(Nc2ncnc3[nH]cc(C(=O)c4ccccc4C)c23)c1
82 to 87	COC(=O)C(O)C(CC(C)C)NC(=O)C(Cc1c[nH]cn1)NC(=O)C(CC(=O)NCCc1ccccc1)Cc1cccc2ccccc12 (mixture of isomers)
136 to 138	CCN(CC)CCCC1CCCN(C(=O)N2c3ccccc3NC(=O)c3csc(C)c32)C1 (stereo not given)
153 to 155	O=C1COc2ccc(C3=Nc4ccccc4SC3c3ccc(Cl)cc3)cc2N1 (stereo not given)

melting point [°C]	Structure (SMILES)
> 220	CC(C)CCCC(C)NC1=NS(=O)(=O)c2cc(Cl)ccc2N1 (stereo not given)
81.5 to 83	Cc1ccccc1OCCOS(N)(=O)=O
180 to 185	Cc1nc2c(-c3cccc(N4CCN(C5CCN(C)CC5)CC4)c3)cnn2c(N)c1-c1cccc(Cl)c1
113	N#CCCOC(=O)NC(=O)C(c1ccccc1)c1ccccc1
261 to 263	CCCOc1ccc(S(=O)(=O)Nc2ccc3[nH]ncc3c2)cc1-c1nc2cc(N)c([N+](=O)[O-])cc2c(=O)[nH]1
193 to 195	O=C(CCC(F)(F)F)Oc1cc(=O)n(-c2ccccc2)c2ncccc12
> 260	COc1cc(C(F)(F)F)cc(OC)c1-c1csc(NC(=O)c2cc3ccccc3[nH]2)n1
154 to 156	CNC(=O)c1cc(-c2ccc(OC)cc2)nn(Cc2ccc(Cl)cc2Cl)c1=O
217 to 218	Nc1ccc(C(c2ccccc2)(c2ccc(N)cc2)C(F)(F)F)cc1
108 to 109	COC(=O)CC(Cc1c[nH]c2ccccc12)(NC(=O)OC1C2CC3CC(C2)CC1C3)C(=O)O (stereo not given)
> 250	Clc1ccc2c(NCC=CCNc3ccnc4cc(Cl)ccc34)ccnc2c1
233 to 235	CCOCc1nc2c(N)nc3ccccc3c2n1CCCC(N)=O
198 to 199	COc1ccc(C[C@@H](NC(=O)c2cccc3ccccc23)[C@@H](O)c2ccc(F)cc2)cc1 (racemic)
147	CSC(=S)N1CCN(Cc2ccccc2O)CC1
144 to 146	CN(C(=O)Nc1ccccc1CCc1cc(C(C)(C)C)c(O)c(C(C)(C)C)c1)C1CCN(Cc2ccccc2)CC1
130 to 131	COc1c(C)cc(C2=C(c3ccc(S(C)(=O)=O)cc3)OC(C)(C)C2=O)cc1C
148 to 155	Cc1ccc(C(=O)NC(CF)NC(=S)Nc2cccc([N+](=O)[O-])c2)cc1 (stereo not given)
144 to 146	CCOCCn1cc(C2CCN(CCOc3ccc(C)cc3C(=O)O)CC2)c2cc(OC)ccc21
169 to 170	CC(=O)c1cc(NS(C)(=O)=O)c(Sc2ccc(F)cc2F)cc1[N+](=O)[O-]
180 to 181	Cc1cc(N)cc(C)c1Oc1ccc(O)c(C(C)C)c1
224 to 225	Cc1cccc2c1SC(C(F)(F)F)C(C(=O)O)=C2 (stereo not given)
70 to 71	Cc1cc(O)ccc1OCc1ccccc1
140	Cc1c(-c2ccccc2)n(Cc2ccccc2)c2ccc(-c3ccc(OCC#N)cc3)cc12

Structure (SMILES)	melting point [°C]
Cc1ccc(OC(=O)CCCC(=O)OOC(=O)CCCC(=O)Oc2ccc(C)cc2)cc1	24 to 30
Cc1nnc2n1-c1ccc(Br)cc1C(c1ccccn1)=NC2	248 to 250
CN1CCN(Cc2nnc3n2-c2ccc(Cl)cc2C(c2ccccc2)=NC3)CC1	203 to 206
